Data published in patent US20190376046A1, “METHODS FOR MANIPULATING CELL FATE” (The McLean Hospital Corporation, priority 2017, published 2019).

What was measured:
[1] = tested on: human dermal fibroblasts (hDFs); test: Live cell metabolic analysis (Seahorse XF, OCR/ECAR) in fibroblasts; type: cell-based; details: 0.2 mM; Y4+SIRT2 KD fibroblasts
Protocol: Oxygen consumption rate (OCR) and extracellular acidification rates (ECAR) were measured using the XFp8 or XF24 analyzer (Seahorse Bioscience, MA) according to the manufacturer's instruction. Briefly, cells were plated into wells of an XF cell culture microplate and incubated at 37° C. in a CO2 incubator for 24 h to ensure attachment. The assay was started after cells were equilibrated for 1 h in XF assay medium supplemented with 10 mM glucose, 5 mM sodium pyruvate and 2 mM glutamine in a non-CO2 incubator. Mitochondrial activity between hDFs and hESCs/parental hDFs and iPSCs were monitored through sequential injections of 1 μM oligomycin, […] FCCP and 1 μM rotenone/antimycin A to calculate basal respiration rates (baseline OCR—rotenone/antimycin A OCR), ATP dependent (basal respiration rate—oligomycin OCR), maximum respiration (FCCP OCR— rotenone/antimycin A OCR), and oxidative reserve (maximum respiration rate—basal respiration rate). Glycolytic processes were measured by serial injections of 10 mM glucose, 1 μM oligomycin, and 100 mM 2-deoxyglucose to calculate basal glycolytic rate, glycolytic capacity (in response to oligomycin), and glycolytic reserve (glycolytic capacity—basal rate). Each plotted value was normalized to total protein quantified using a Bradford protein assay (Bio-Rad).

hDFs = test: Human iPSC induction, AP-positive colonies; type: cell-based; details: 1 mM or higher concentration; fibroblasts
Protocol: Human dermal fibroblasts (hDFs) were cultured in Dulbecco's modified Minimal Essential Medium (DMEM; Invitrogen, Carlsbad, Calif.) supplemented with 2 mM L-glutamine (Invitrogen), 10% fetal bovine serum (FBS; Invitrogen), 100 U/ml penicillin and 100 μg/ml streptomycin (Invitrogen). For iPSC induction, DMEM/F-12 medium supplemented with 2 mM L-glutamine (Invitrogen), 1 mM […] (Invitrogen), 1× non-essential amino acids (NEAA; Invitrogen), 20% knock-out serum replacement (KSR; Invitrogen), 100 U/ml penicillin, 100 μg/ml streptomycin (Invitrogen) and 10 ng/ml basic fibroblast growth factor (bFGF; Invitrogen) was used as the reprogramming medium. Human ESC lines and hiPSC lines were maintained in Essential 8 medium (Invitrogen) using Matrigel® Matrix (Corning Life Sciences, Tewksbury, Mass.) and passaged using 0.5 mM EDTA (Invitrogen) for gentle dissociation.
Human iPSCs were generated using lentiviral particles by inducible lentiviral vectors or STEMCCA vectors to introduce the OSKM factors (Oct4, Sox2, Klf4, and c-Myc) into fibroblasts^49. ES-like colonies formed after 3 weeks of viral infection and the observed ES-like colonies were handpicked and transferred onto mouse feeder cells (MEF)-plated or Matrigel-coated tissue culture plates to generate iPSC lines. iPSC colonies were mechanically picked until iPSC lines were established.

SIRT1 = molecular target: T1, SIRT1 (Homo sapiens, UniProt Q96EB6); details: cited from earlier work
T1 sequence (Q96EB6 1-747): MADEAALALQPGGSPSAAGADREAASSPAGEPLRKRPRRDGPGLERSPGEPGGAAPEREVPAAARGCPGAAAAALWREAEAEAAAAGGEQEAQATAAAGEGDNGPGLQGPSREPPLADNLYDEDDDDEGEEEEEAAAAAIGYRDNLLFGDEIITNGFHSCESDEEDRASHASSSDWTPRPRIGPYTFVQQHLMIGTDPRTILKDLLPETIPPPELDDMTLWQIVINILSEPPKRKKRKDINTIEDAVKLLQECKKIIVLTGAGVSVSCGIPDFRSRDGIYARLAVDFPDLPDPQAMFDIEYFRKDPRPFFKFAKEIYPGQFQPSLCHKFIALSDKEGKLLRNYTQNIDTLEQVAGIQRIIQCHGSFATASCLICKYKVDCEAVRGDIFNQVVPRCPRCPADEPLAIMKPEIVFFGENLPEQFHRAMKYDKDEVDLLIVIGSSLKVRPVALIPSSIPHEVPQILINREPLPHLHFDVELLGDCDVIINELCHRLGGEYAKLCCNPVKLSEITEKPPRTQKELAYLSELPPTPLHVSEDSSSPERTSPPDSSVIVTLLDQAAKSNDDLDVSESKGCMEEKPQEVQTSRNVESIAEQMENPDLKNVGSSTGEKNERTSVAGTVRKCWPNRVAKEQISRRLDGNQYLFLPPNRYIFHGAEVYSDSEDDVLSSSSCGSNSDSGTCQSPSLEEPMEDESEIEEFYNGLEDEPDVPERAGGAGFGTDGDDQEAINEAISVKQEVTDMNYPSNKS

[2] = tested on: hPSCs (H9, H7, hiPSC-1, hiPSC-2); test: Annexin V/7-AAD staining (apoptosis); type: cell-based, human; details: pretreatment; hPSCs with Dox-induced SIRT2 OE
PI3K = details: read-out: IC50 (PI3K inhibitor); cited from earlier work
SIRT2 [3] = molecular target: T2, SIRT2 (Homo sapiens, UniProt Q8IXJ6); details: relative to SIRT1; cited from earlier work
T2 sequence (Q8IXJ6 1-389): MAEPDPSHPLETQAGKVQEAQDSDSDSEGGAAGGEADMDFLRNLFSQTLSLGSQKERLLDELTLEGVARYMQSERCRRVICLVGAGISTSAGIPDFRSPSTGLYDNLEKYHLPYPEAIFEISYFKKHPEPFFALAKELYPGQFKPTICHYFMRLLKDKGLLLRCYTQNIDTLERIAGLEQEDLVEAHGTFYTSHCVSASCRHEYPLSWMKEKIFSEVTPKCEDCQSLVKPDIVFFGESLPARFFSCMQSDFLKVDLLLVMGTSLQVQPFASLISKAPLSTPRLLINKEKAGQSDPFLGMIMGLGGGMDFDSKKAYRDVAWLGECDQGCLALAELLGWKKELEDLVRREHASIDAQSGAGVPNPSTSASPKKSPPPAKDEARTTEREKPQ

SIRT3 = molecular target: T3, SIRT3 (Homo sapiens, UniProt Q9NTG7); details: cited from earlier work
T3 sequence (Q9NTG7 1-399): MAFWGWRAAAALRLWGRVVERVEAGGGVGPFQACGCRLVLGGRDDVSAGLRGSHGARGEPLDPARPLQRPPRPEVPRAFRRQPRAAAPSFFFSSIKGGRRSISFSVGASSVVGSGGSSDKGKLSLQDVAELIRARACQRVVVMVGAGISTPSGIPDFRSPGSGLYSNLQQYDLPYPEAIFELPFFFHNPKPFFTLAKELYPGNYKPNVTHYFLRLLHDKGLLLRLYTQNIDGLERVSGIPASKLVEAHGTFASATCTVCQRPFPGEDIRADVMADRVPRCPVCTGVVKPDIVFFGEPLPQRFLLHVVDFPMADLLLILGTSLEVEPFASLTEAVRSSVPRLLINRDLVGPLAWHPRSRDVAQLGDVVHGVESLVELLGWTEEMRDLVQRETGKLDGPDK

SIRT2 [4] = test: SIRT2 expression by qRT-PCR and western blot after pre-miRNA transfection; type: cell-based, human; details: fibroblasts transfected with pre-miRNA
Protocol: Samples (50 μg) were loaded onto a 12% SDS-PAGE and separated by electrophoresis followed by transfer onto a piece of Immun-Blot PVDF membrane (Bio-Rad, Hercules, Calif.). After transfer, the membrane was blocked at room temperature with Tris-buffered saline (TBS) containing 0.1% Tween-20 and 5% (w/v) skim milk for 3-5 h and then incubated overnight at 4° C. with primary antibody. The membrane was washed three times with TBS containing 0.05% Tween-20 (TBST) and then incubated for 2 h with the appropriate secondary antibody (Pierce, Rockford, Ill.). After washing twice with TBST and once with TBS, bound antibodies were detected by chemiluminescence using the SuperSignal® West Pico kit (Pierce). […]
Total RNA was extracted from cells by using the Direct-zol RNA purification Kit (Zymo research, Irvine, Calif.) and cDNA was synthesized using the ThermoScript™ RT-PCR system (Invitrogen). For quantitative analysis, qRT-PCR (Bio-Rad) was performed using SsoAdvanced SYBR Green supermix (Bio-Rad) with target genes specific primers. […]

[5] = tested on: CDS fragments of SIRT2 (MREs); test: Luciferase reporter assay; type: cell-based, human; details: 293T cells, psicheck2 SIRT2 CDS fragments
Source text: Human SIRT1 or SIRT2 was PCR-amplified from hESCs (H9) or hDFs, respectively, then cloned into the pGEM®-T Easy vector (Promega, Madison, Wis.). The 2A sequence of the Thoseaasigna virus (T2A)-linked EGFP was amplified from pCXLE-EGFP plasmid (#27082; Addgene, Cambridge, Mass.) by […], cloned into the […] vector. The SIRT1 and SIRT2 fragments were then cut off from the corresponding vectors and inserted into the pGEM-T-T2A-EGFP to generate pGEM-T-SIRT1-T2A-EGFP and pGEM-T-SIRT2-T2A-EGFP, respectively. The SIRT1-T2A-EGFP and SIRT2-T2A-EGFP constructs were confirmed by sequencing and then introduced into the EcoRI site of FUW-tetO vector (Addgene), respectively. Human AldoA-Myc constructs, the AldoA fragment was PCR-amplified from hESCs (H9), and then cloned into the pcDNA3.1-Myc/His vector (Invitrogen). For the psicheck2 constructs, the CDS fragments were cloned in downstream of a Renilla luciferase open reading frame. […]
The Promega dual luciferase assay kit was used to perform the luciferase assay according to the manufacturer's instruction. In brief, cell lysates were analyzed for luciferase activity using the dual luciferase system in which two luciferase enzymes, one (from Renilla reniformis) containing the experimental target sequence and another (from firefly) containing the control. […]

**Q.** Which glycolytic flux [1] does the source give for `O=CC[C@@H](O)[C@H](O)[C@H](O)CO` [2DG, 2-deoxy-glucose] here?
**A.** decreased the glycolytic flux in Y4+SIRT2 KD to the level of Y4 only without 2DG

**Q.** What about the “generation of iPSC-like colonies” value (hDFs) of the same compound?
**A.** completely blocked

**Q.** For `N#C/C(=C\c1ccc(-c2cc(Cl)ccc2Cl)o1)C(=O)Nc1cccc2ncccc12` [AGK2], which “effect on SIRT1” value (SIRT1; at 10-fold higher levels than SIRT2 IC50) is on record?
**A.** minimally affects

**Q.** With `CC(=O)N[C@@H](CS)C(=O)O` [N-acetyl-L-Cysteine] as the compound, how does the SIRT2-induced cell death [2] read?
**A.** rescued

**Q.** For `O=c1c(O)c(-c2ccc(O)c(O)c2)oc2cc(O)cc(O)c12` [Quercetin], which IC50 (PI3K) is on record?
**A.** 2.4 to 5.4 µM

**Q.** What does the source list for `O=C(Nc1ccccc1-c1cn2c(CN3CCNCC3)csc2n1)c1cnc2ccccc2n1` [SRT1720]?
**A.** EC50 (SIRT1; cell-free assay, read-out: EC50 (SIRT1 activator)): 0.16 µM; fold less potent for SIRT2 (SIRT2 [3]): > 230 fold; fold less potent for SIRT3 (SIRT3; relative to SIRT1): > 230 fold

**Q.** For `CN(C)CCCCC(=O)Nc1ccc(NC(=S)NC(=O)c2ccc(C(C)(C)C)cc2)cc1` [Tenovin-6], which IC50 (SIRT3; purified human SIRT3 in vitro, read-out: IC50 protein deacetylase activity of SIRT3) is on record?
**A.** 67 µM

**Q.** For `CCCCCCCCCCCCCC(=S)NCCCC[C@H](NC(=O)OCc1ccccc1)C(=O)Nc1ccccc1` [Thiomyristoyl], which “inhibition of SIRT3” value (SIRT3; at 200 μM) is on record?
**A.** does not inhibit SIRT3 even at 200 μM

**Q.** With “pre-miR-200c-5p: precursor miRNA oligomer of miR-200c-5p, CGUCUUACCCAGCAGUGUUUGG (SEQ ID NO: 1) (further chemistry not given here; listed as Homo sapiens)” as the compound, how does the “SIRT2 expression (mRNA and protein)” value (SIRT2 [4]) read?
**A.** significantly decreased

**Q.** And the “reporter expression of both MREs” value [5]?
**A.** significantly decreased
